# Results taken from US20240383845A1, “NAPHTHALENEDITHIOL AND DERIVATIVE THEREOF, AND PRODUCTION PROCESS AND USE FOR THE SAME” (SUGAI CHEMICAL INDUSTRY CO., LTD., priority 2021, published 2024).
# How the values were obtained:
# [1] = Refractive index (abbe refractometer); assay type: physicochemical; settings: 25° C., 589 nm, value at 100% by mass by extrapolation
# Protocol: The refractive index of each sample was measured using an abbe refractometer (“NAR-lT” manufactured by ATAGO CO., LTD.) at a temperature of 25° C. and a wavelength of 589 nm. Depending on the species of each sample, the refractive index was measured as follows.
# For the after-mentioned 16NDSH, 15NDSH, 26NDSH and 27NDSH; 15DGNDSH; 15DHENDSH; 16DMNDSH and 15DMNDSH; and 16DCNDSH and 15DCNDSH, a sample was dissolved in 1,3-dimethyl-2-imidazolidinone (DMI) to prepare multiple solutions with different concentrations, and the refractive index of each solution was measured at a temperature of 25° C. and a wavelength of 589 nm. From the results of the refractive index at each concentration, the refractive index value at 100% by mass of the concentration was determined by extrapolation.
# For the after-mentioned 16NDSHMA, 15NDSHMA, 26NDSHMA and 27NDSHMA; 16NDSHA and 15NDSHA; 15DANDSH; and 15DVNDSH, polymerization may occur during the mixing, and thus a sample was dissolved in a methoquinone/DMI solution (a solution containing 4000 ppm of methoquinone relative to the mass of DMI) to prepare multiple solutions with different concentrations. The refractive index of each solution was measured at a temperature of 25° C. and a wavelength of 589 nm. From the results of the refractive index at each concentration, the refractive index value at 100% by mass of the concentration was determined by extrapolation.
# For the after-mentioned 16DANDSH; 16DVNDSH; 16DGNDSH; and 16DHENDSH, a sample was liquid for a while after preparation, and thus the refractive index was measured in the state of an undiluted solution. Further, thiol-ene-based resins (thiol-ene-based resins obtained from 16NDSH or 15NDSH and divinylbenzene) were measured in the same manner. […]
# [2] = Dissolubility or compatibility (maximum dissolved concentration, HPLC); assay type: physicochemical; settings: 25° C.; for Dissolubility, MMA: methyl methacrylate; for Dissolubility, PGMEA: propylene glycol monomethyl ether acetate; for Dissolubility, DMF: N,N-dimethylformamide; for Dissolubility, THF: tetrahydrofuran
# Protocol: In more detail, the sample was added to a predetermined amount of a solvent or a polymerizable component until the sample was no longer dissolved, and the sample content of the liquid layer (the solvent layer) of the resulting mixture was analyzed using an HPLC (“SPD-20A” manufactured by SHIMADZU CORPORATION), and thus the concentration (the maximum dissolved concentration) of the sample in the liquid layer (the solvent layer) was determined as a solubility.
# [3] = DMI solutions of different concentrations
Compound,"Refractive index [1, 3]","Dissolubility, Ethyl acetate [2]","Dissolubility, MMA [2] [% by mass]","Dissolubility, PGMEA [2] [% by mass]","Dissolubility, Styrene [2] [% by mass]","Dissolubility, Toluene [2]",melting point [°C],Refractive index ([1]; methoquinone/DMI solutions),"Dissolubility, DMF [2] [% by mass]","Dissolubility, Methanol [2] [% by mass]","Dissolubility, THF [2] [% by mass]"
"CSc1ccc2c(SC)cccc2c1 [Example 16DMNDSH, 1,6-bis(methylthio)naphthalene]",1.690,Freely blended (>90) % by mass,62.3,42.3,68.7,Freely blended (>90) % by mass,52 to 53,–,–,–,–
"C=CC(=O)Sc1ccc2c(SC(=O)C=C)cccc2c1 [Example 16NDSHA, 1,6-bis(acryloylthio)naphthalene]",–,56.3 % by mass,55.7,44.3,59.4,58.4 % by mass,64 to 66,1.667,–,–,–
"Sc1ccc2cc(S)ccc2c1 [Example 26NDSH, 2,6-naphthalenedithiol]",1.718,0.65 % by mass,–,0.73,–,0.64 % by mass,196 to 197,–,3.54,0.11,4.03
"Sc1ccc2ccc(S)cc2c1 [Example 27NDSH, 2,7-naphthalenedithiol]",1.721,0.90 % by mass,–,1.05,–,0.76 % by mass,186 to 188,–,7.75,0.16,5.24
